Laboratory results published in US6716829B2, “Aldosterone antagonist and cyclooxygenase-2 inhibitor combination therapy to prevent or treat inflammation-related cardiovascular disorders” (Pharmacia Corporation, priority 2000, dated 2004).

Columns and labels:
[1] = system: marker proteins (osteopontin, ED-1, CD-3, ICAM-1, VCAM-1); assay: Assay C: immunohistochemistry of myocardial tissue (osteopontin, ED-1, CD-3, ICAM-1, VCAM-1); format: in vivo, Male Sprague-Dawley rats; conditions: aldosterone + salt treated rats; eplerenone 100 mg/kg/day
Experimental: The procedure of Assay B was expanded upon in a further study. […] Myocardial tissue from animals in each treatment group was examined after 7, 14, or 30 days of treatment. […] Lesions were preceded by the expression and progressive upregulation of proinflammatory molecules.
Potassium chloride supplementation was added to the saline solution in order to prevent the potential hypokalemia associated with aldosterone excess.
At the time of the surgery, an Alzet 2002 osmotic minipump (Alza Corp., Palo Alto, Calif.) containing either vehicle (9% ethanol/87% propylene glycol/4% dH2O) or 1.0 mg/mL d-aldosterone (Sigma Chemical, St. Louis, Mo.) was inserted subcutaneously at the nape of the neck. Aldosterone was administered at a dose of 0.75 µg/hour. […] Animals were sacrificed from each group (n=8-13) after 7, 14, or 30 days of treatment.
The equatorial regions of the heart were routinely processed into paraffin with an automated tissue processor (Hypercenter XP, Shandon/Lipshaw Inc., Pittsburgh, Pa.) and embedded into fresh paraffin apical side down (Shandon Embedding Center, Shandon/Lipshaw Inc.). Five and 10 µm sections were cut from each block of tissue using a Leica RM2035 rotary microtome (Leica Inc., Houston, Tex.) and mounted on Superfrost/Plus microscope slides (Fisher Scientific, Pittsburgh, Pa.). […]

[2] = system: coronary arteries of angiotensin II/salt-treated animals; assay: Assay A: heart histology (hematoxylin&eosin), vascular inflammatory lesions and myocardial injury; format: in vivo, Male Wistar rats; conditions: eplerenone 100 mpk; for Vascular inflammation and myocardial injury in the heart: angiotensin II infused rats, aldosterone replacement in adrenalectomized rats
Source text: Sacrifice by exanguination after 4 weeks. Blood was be collected in dry tubes for determination of serum electrolytes and in EDTA-containing tubes for measurement of aldosterone and corticosterone levels Hearts were stained with hematoxylin&eosin and have been analyzed for determination of morphologic abnormalities (i.e. necrosis, vascular injury).

Compound	Staining in myocardial tissue for marker proteins (immunohistochemistry) [1]	Vascular inflammation and myocardial injury in the heart [2]	Animals with vascular inflammatory changes (lesions) in the coronary arteries ([2]; of ten animals per group, angiotensin II/salt, 4 weeks)
C[C@]12CCC(=O)C=C1CC[C@@H]1[C@@H]2[C@@H](O)C[C@]2(C=O)[C@@H](C(=O)CO)CC[C@@H]12 [Aldosterone]	Significant expression of osteopontin	restored the severe coronary and myocardial inflammation and injury	–
COC(=O)[C@@H]1CC2=CC(=O)CC[C@]2(C)[C@@]23O[C@@H]2C[C@@]2(C)[C@@H](CC[C@@]24CCC(=O)O4)[C@H]13 [Eplerenone]	markedly blunted	prevention	one of the ten
